Results taken from ChEMBL document CHEMBL2177079, “Free-Wilson and structural approaches to co-optimizing human and rodent isoform potency for 11β-hydroxysteroid dehydrogenase type 1 (11β-HSD1) inhibitors” (J Med Chem, 2012).
Calls of active or inactive are those of the source. The rule behind the calls is not given here.

How the values were obtained:
[1] = target: 11-beta-hydroxysteroid dehydrogenase 1 (Mus musculus, UniProt P50172); assay: Inhibition of mouse 11beta-HSD1 by HTRF assay
[2] = Lipophilicity, log D at pH 7.4; type: physicochemical; conditions: buffer
Rattus norvegicus [3] = assay: (§1) Oral bioavailability in Han Wistar rat at 7.4 to 14.7 umol/kg; type: ADME, organism-based; conditions: in vivo
[4] = Intrinsic clearance in male beagle dog hepatocytes measured per 10^6 cells; type: ADME, cell-based, Canis lupus familiaris, Hepatocyte; conditions: read-out: CLH
Rattus norvegicus [5] = assay: Inhibition of 11beta-HSD1 in po dosed Han Wistar rat epididymal adipose tissue assessed as conversion of [3H]cortisone to [3H]cortisol; type: functional, organism-based
[6] = Volume of distribution at steady state in Han Wistar rat at 4.7 umol/kg, iv; type: ADME, organism-based; conditions: in vivo, read-out: Vdss
[7] = Clearance in mouse at 4.7 umol/kg, iv; type: ADME, organism-based; conditions: in vivo
[8] = AUC in male beagle dog at 1.2 umol/kg, po; type: ADME, organism-based, Canis lupus familiaris; conditions: plasma
[9] = AUC in mouse at 11.7 umol/kg, po; type: ADME, organism-based, Plasma; conditions: whole blood
[10] = Fraction unbound in Han Wistar rat plasma; type: ADME, cell-free
[11] = Clearance in Han Wistar rat at 4.7 umol/kg, iv; type: ADME, organism-based; conditions: in vivo
[12] = target: T1, 11-beta-hydroxysteroid dehydrogenase type 2 (Homo sapiens, UniProt P80365); assay: Inhibition of human 11beta-HSD2 by HTRF assay
T1 sequence (P80365 whole entry): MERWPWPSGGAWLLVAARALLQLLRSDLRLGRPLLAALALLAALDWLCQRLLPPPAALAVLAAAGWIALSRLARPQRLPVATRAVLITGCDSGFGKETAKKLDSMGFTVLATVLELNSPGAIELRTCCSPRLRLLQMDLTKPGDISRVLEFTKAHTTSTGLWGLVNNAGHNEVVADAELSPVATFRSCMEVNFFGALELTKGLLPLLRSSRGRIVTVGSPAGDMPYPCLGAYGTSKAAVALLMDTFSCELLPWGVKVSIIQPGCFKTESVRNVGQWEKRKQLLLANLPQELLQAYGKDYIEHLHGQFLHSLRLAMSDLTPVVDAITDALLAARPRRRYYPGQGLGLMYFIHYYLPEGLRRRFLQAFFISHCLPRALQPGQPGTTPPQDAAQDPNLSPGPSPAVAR

[13] = Oral bioavailability in male beagle dog at 1.2 umol/kg; type: ADME, organism-based, Canis lupus familiaris; conditions: in vivo
[14] = Fraction unbound in male beagle dog plasma; type: ADME, cell-free, Canis lupus familiaris
[15] = Half life in male beagle dog at 1 umol/kg, iv; type: ADME, organism-based, Canis lupus familiaris; conditions: in vivo
[16] = Intrinsic clearance in female beagle dog hepatocytes measured per 10^6 cells; type: ADME, cell-based, Canis lupus familiaris, Hepatocyte; conditions: read-out: CLH
[17] = AUC in female beagle dog at 1.2 umol/kg, po; type: ADME, organism-based, Canis lupus familiaris; conditions: plasma
[18] = Fraction unbound in human plasma; type: ADME, cell-free
[19] = Oral bioavailability in female beagle dog at 1.2 umol/kg; type: ADME, organism-based, Canis lupus familiaris; conditions: in vivo
[20] = Clearance in female beagle dog at 1 umol/kg, iv; type: ADME, organism-based, Canis lupus familiaris; conditions: in vivo
[21] = Fraction unbound in female beagle dog plasma; type: ADME, cell-free, Canis lupus familiaris
[22] = Half life in mouse at 4.7 umol/kg, iv; type: ADME, organism-based; conditions: in vivo
[23] = Volume of distribution at steady state in mouse at 4.7 umol/kg, iv; type: ADME, organism-based; conditions: in vivo, read-out: Vdss
[24] = Volume of distribution at steady state in female beagle dog at 1 umol/kg, iv; type: ADME, organism-based, Canis lupus familiaris; conditions: in vivo, read-out: Vdss
[25] = Oral bioavailability in mouse at 11.7 umol/kg; type: ADME, organism-based; conditions: in vivo
[26] = AUC in Han Wistar rat at 11.7 umol/kg, po; type: ADME, organism-based; conditions: plasma
[27] = Intrinsic clearance in Han Wistar rat hepatocytes measured per 10^6 cells; type: ADME, cell-based, Hepatocyte; conditions: read-out: CLH
[28] = Intrinsic clearance in mouse hepatocytes measured per 10^6 cells; type: ADME, cell-based, Hepatocyte; conditions: read-out: CLH
[29] = target: T2, 11-beta-hydroxysteroid dehydrogenase 1 (Homo sapiens, UniProt P28845); assay: Inhibition of human 11beta-HSD1 by HPLC assay
T2 sequence (P28845 whole entry): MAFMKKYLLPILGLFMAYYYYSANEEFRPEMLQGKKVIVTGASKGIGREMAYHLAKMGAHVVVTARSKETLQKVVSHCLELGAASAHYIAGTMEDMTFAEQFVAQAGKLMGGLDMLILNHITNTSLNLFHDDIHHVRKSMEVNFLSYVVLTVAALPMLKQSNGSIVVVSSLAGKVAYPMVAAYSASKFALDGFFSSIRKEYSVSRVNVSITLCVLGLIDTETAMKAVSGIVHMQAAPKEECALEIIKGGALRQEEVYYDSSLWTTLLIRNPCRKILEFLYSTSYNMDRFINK

[30] = target: T3, 17-beta-hydroxysteroid dehydrogenase type 1 (Homo sapiens, UniProt P14061); assay: Inhibition of human 17beta-HSD1 by HPLC assay
T3 sequence (P14061 whole entry): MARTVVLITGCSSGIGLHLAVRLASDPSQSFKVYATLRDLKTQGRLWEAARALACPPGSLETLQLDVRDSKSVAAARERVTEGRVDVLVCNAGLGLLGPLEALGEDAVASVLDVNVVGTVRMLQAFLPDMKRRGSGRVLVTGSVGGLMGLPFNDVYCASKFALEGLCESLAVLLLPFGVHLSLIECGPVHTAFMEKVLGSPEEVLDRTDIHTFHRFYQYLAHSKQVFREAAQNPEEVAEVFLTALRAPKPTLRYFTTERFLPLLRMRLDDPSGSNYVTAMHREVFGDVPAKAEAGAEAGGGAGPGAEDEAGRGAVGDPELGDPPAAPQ

[31] = Clearance in male beagle dog at 1 umol/kg, iv; type: ADME, organism-based, Canis lupus familiaris; conditions: in vivo
[32] = Fraction unbound in mouse plasma; type: ADME, cell-free
[33] = Volume of distribution at steady state in male beagle dog at 1 umol/kg, iv; type: ADME, organism-based, Canis lupus familiaris; conditions: in vivo, read-out: Vdss
Mus musculus [34] = assay: Inhibition of 11beta-HSD1 in po dosed C57 mouse epididymal adipose tissue assessed as conversion of [3H]cortisone to [3H]cortisol; type: functional, organism-based
[35] = Half life in Han Wistar rat at 4.7 umol/kg, iv; type: ADME, organism-based; conditions: in vivo
[36] = target: T2, 11-beta-hydroxysteroid dehydrogenase 1; assay: Inhibition of human 11beta-HSD1 by HTRF assay
[37] = Half life in female beagle dog at 1 umol/kg, iv; type: ADME, organism-based, Canis lupus familiaris; conditions: in vivo
[38] = target: T4, 17-beta-hydroxysteroid dehydrogenase type 3 (Homo sapiens) (UniProt P37058); assay: Inhibition of human 17beta-HSD3 at 10 uM by HPLC assay
T4 sequence (whole entry): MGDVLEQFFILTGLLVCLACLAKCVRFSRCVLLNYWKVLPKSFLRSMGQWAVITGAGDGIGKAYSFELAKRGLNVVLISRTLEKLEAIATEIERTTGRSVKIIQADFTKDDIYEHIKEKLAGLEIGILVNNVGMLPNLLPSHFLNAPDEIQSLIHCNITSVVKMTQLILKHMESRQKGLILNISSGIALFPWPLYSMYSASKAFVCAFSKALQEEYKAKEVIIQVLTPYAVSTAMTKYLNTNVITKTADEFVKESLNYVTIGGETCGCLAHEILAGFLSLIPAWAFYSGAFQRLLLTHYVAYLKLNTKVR

[39] = Intrinsic clearance in human hepatocytes measured per 10^6 cells; type: ADME, cell-based, Hepatocyte; conditions: read-out: CLH
[40] = Oral bioavailability in Han Wistar rat at 11.7 umol/kg; type: ADME, organism-based; conditions: in vivo
[41] = as §1; type: ADME, organism-based; conditions: Han Wistar, in vivo
[42] = Clearance in male beagle dog at 0.6 umol/kg, iv; type: ADME, organism-based, Canis lupus familiaris; conditions: in vivo
[43] = AUC in Han Wistar rat at 7 umol/kg, po; type: ADME, organism-based, Plasma; conditions: whole blood
Mus musculus [44] = assay: Reduction in fasting plasma glucose levels in obese mouse at 300 mg/kg/day, po; type: functional, organism-based
[45] = Volume of distribution at steady state in male beagle dog at 0.6 umol/kg, iv; type: ADME, organism-based, Canis lupus familiaris; conditions: in vivo, read-out: Vdss
[46] = target: Corticosteroid 11-beta-dehydrogenase isozyme 1 (Mus musculus) (UniProt P50172); assay: Inhibition of 11beta-HSD1 in po dosed mouse liver assessed as target engagement; parameters: scale not given: the % may be the effect or the level left
[47] = Clearance in female beagle dog at 0.6 umol/kg, iv; type: ADME, organism-based, Canis lupus familiaris; conditions: in vivo
[48] = Oral bioavailability in Han Wistar rat at 7 umol/kg; type: ADME, organism-based; conditions: in vivo
Mus musculus [49] = assay: Reduction in fasting plasma glucose levels in obese mouse at 50 mg/kg/day, po; type: functional, organism-based
[50] = Volume of distribution at steady state in female beagle dog at 0.6 umol/kg, iv; type: ADME, organism-based, Canis lupus familiaris; conditions: in vivo, read-out: Vdss
Mus musculus [51] = assay: Reduction in body weight in obese mouse at 300 mg/kg/day, po; type: functional, organism-based
[52] = Half life in female beagle dog at 0.6 umol/kg, iv; type: ADME, organism-based, Canis lupus familiaris; conditions: in vivo
Mus musculus [53] = assay: Reduction in body weight in obese mouse at 50 mg/kg/day, po; type: functional, organism-based
[54] = Half life in male beagle dog at 0.6 umol/kg, iv; type: ADME, organism-based, Canis lupus familiaris; conditions: in vivo

Sequence of 11-beta-hydroxysteroid dehydrogenase 1 (Mus musculus, UniProt P50172) (P50172 whole entry): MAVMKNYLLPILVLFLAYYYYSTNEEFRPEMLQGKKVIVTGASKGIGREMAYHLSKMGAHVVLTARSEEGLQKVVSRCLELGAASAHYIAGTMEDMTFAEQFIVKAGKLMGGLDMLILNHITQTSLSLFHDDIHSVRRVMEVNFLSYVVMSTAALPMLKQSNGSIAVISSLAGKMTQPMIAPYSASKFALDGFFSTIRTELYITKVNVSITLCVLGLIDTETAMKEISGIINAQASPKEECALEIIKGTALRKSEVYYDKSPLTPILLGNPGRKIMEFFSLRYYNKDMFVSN

## CC(C)(CO)Nc1ncc(C(=O)N[C@H]2C3CC4CC2C[C@](O)(C4)C3)c(OC2CCC2)n1
[1]
  IC50: 20 nM
[2]
  logD: 3.1
Rattus norvegicus [3]
  F: 161%

## O=C(N[C@H]1C2CC3CC1C[C@](O)(C3)C2)c1cnc(NC2CCOCC2)nc1C1CCC1
[4]
  hepatocyte CLint: < 2 µL/min/1e6 cells
Rattus norvegicus [5]
  IC50: 87 nM
[1]
  IC50: 27 nM
[6]
  Vd: 0.9 L/kg
[7]
  clearance: 42 mL/min/kg
[8]
  AUC: 0.38 µM·h
[9]
  AUC: 2.7 µM·h
[10]
  fraction unbound: 0.55
[11]
  clearance: 32 mL/min/kg
[12]
  IC50: > 30000 nM
[13]
  bioavailability: 34%
[14]
  fraction unbound: > 0.66
[2]
  logD: 2.1
[15]
  half-life: 48 min
[16]
  hepatocyte CLint: < 2 µL/min/1e6 cells
[17]
  AUC: 0.16 µM·h
[18]
  fraction unbound: 0.52
[19]
  bioavailability: 23%
[20]
  clearance: 29 mL/min/kg
[21]
  fraction unbound: > 0.66
[22]
  half-life: 24 min
[23]
  Vd: 1.1 L/kg
[24]
  Vd: 1.6 L/kg
[25]
  bioavailability: 57%
[26]
  AUC: 10.4 µM·h
[27]
  hepatocyte CLint: < 2 µL/min/1e6 cells
[28]
  hepatocyte CLint: 3.6 µL/min/1e6 cells
[29]
  IC50: 14 nM
[30]
  IC50: > 35000 nM
[31]
  clearance: 19 mL/min/kg
[32]
  fraction unbound: > 0.5
[33]
  Vd: 1.1 L/kg
Mus musculus [34]
  IC50: 30 nM
[35]
  half-life: 36 min
[36]
  IC50: 28 nM
[37]
  half-life: 42 min
[38]
  inhibition: 4%
[39]
  hepatocyte CLint: < 2 µL/min/1e6 cells
[40]
  bioavailability: 100%
[41]
  bioavailability: 100%

## O=C(N[C@H]1C2CC3CC1C[C@](O)(C3)C2)c1cnc(N[C@H]2CCOC2)nc1C1CCCC1
[42]
  clearance: 17 mL/min/kg
[4]
  hepatocyte CLint: 6.7 µL/min/1e6 cells
[43]
  AUC: 5.6 µM·h
Mus musculus [44]
  Activity: Active
[1]
  IC50: 32 nM
[45]
  Vd: 0.7 L/kg
[46]
  Activity: >90%
[6]
  Vd: 1 L/kg
[7]
  clearance: 57 mL/min/kg
[8]
  AUC: 0.19 µM·h
[9]
  AUC: 1.5 µM·h
[10]
  fraction unbound: 0.35
[47]
  clearance: 14 mL/min/kg
[11]
  clearance: 9 mL/min/kg
[48]
  bioavailability: 61%
[12]
  IC50: > 30000 nM
[13]
  bioavailability: 15%
[14]
  fraction unbound: 0.38
[2]
  logD: 2.4
[16]
  hepatocyte CLint: 6.7 µL/min/1e6 cells
[17]
  AUC: 0.42 µM·h
[18]
  fraction unbound: 0.38
Mus musculus [49]
  Activity: inactive
[19]
  bioavailability: 30%
[50]
  Vd: 0.6 L/kg
[21]
  fraction unbound: 0.38
[22]
  half-life: 42 min
[23]
  Vd: 2.4 L/kg
[25]
  bioavailability: 34%
[27]
  hepatocyte CLint: < 2 µL/min/1e6 cells
[28]
  hepatocyte CLint: 9.1 µL/min/1e6 cells
[29]
  IC50: 1.6 nM
[30]
  IC50: > 100000 nM
[32]
  fraction unbound: 0.3
Mus musculus [51]
  Activity: Active
Mus musculus [34]
  IC50: 50 nM
[35]
  half-life: 144 min
[36]
  IC50: 21 nM
[38]
  inhibition: 7%
[52]
  half-life: 36 min
Mus musculus [53]
  Activity: Active
[54]
  half-life: 36 min
[39]
  hepatocyte CLint: < 2 µL/min/1e6 cells
[41]
  bioavailability: 61%
